Reference: article PMC6688371, “Effect of the inhaled PDE4 inhibitor CHF6001 on biomarkers of inflammation in COPD” (Respiratory Research, 2019)

Key:
patients with COPD = assay: Forced oscillometry; type: in vivo, human; settings: for Difference in inspiratory resistance (5-19Hz), adjusted mean difference vs placebo (95% CI) / Expiratory reactance (5 Hz), adjusted mean difference vs placebo (95% CI) / Expiratory resistance (5 Hz), adjusted mean difference vs placebo (95% CI) / Expiratory resistance (19 Hz), adjusted mean difference vs placebo (95% CI) / Inspiratory reactance (5 Hz), adjusted mean difference vs placebo (95% CI) / Inspiratory resistance (5 Hz), adjusted mean difference vs placebo (95% CI) / Inspiratory resistance (19 Hz), adjusted mean difference vs placebo (95% CI) / Percentage flow limited breaths, adjusted mean difference vs placebo (95% CI) / Tidal expiratory flow limitation, adjusted mean difference vs placebo (95% CI) / Total reactance (5 Hz), adjusted mean difference vs placebo (95% CI) / Total resistance (5 Hz), adjusted mean difference vs placebo (95% CI) / Total resistance (19 Hz), adjusted mean difference vs placebo (95% CI): change from baseline to Day 32
Procedure: (§1) Induced sputum was collected pre-dose on Day 1 of each treatment period (for the first treatment period, the sample could be collected up to 10 days prior to Day 1), and 2 h post-dose on Days 20, 26 and 32 (see the Additional file 1 for further detail on sputum and blood analysis methods). Blood samples were taken pre-dose on Day 1, and pre-dose and at 30 min, and 1, 1.5, 2, 3, 4, 6, 8 and 12 h post-dose on Day 32. Other pre-dose assessments on Days 1 and 32 were spirometry (forced expiratory volume in 1 s [FEV1] and forced vital capacity [FVC]), forced oscillometry, and COPD Assessment Test (CAT), with Baseline Dyspnea Index recorded on Day 1 and Transition Dyspnea Index (TDI) on Day 32. Central and peripheral airways mechanics were assessed using forced oscillometry, with the following values determined: inspiratory and expiratory resistance (at 5 and 19 Hz), inspiratory and expiratory reactance, tidal expiratory flow limitation and the percentage of flow limited breaths.
The mean changes from baseline to Day 32 for lung function, CAT and TDI were analysed using similar methodology to sputum biomarkers, but were not log-transformed. […] The sputum concentration of CHF6001 was also evaluated at 2 h post-dose, using the mean of all values measured on Days 20, 26 and 32. Pharmacokinetic variables were summarised using geometric means and coefficients of variation, except for Tmax,ss, which is presented as median (range).

[1] = tested on: markers of inflammation in sputum; assay: Markers of inflammation in induced sputum; type: in vivo, human; settings: geometric mean (%CV); for α-2-macroglobulin in sputum, post-baseline: mean of Days 20, 26 and 32
Procedure: as §1
A patient had to have a minimum of one acceptable sputum sample on Day 20, 26 or 32 to be included in the sputum biomarker evaluation for that treatment period, with the available cell count and biomarker data averaged for each patient. The mean change from baseline (pre-dose on Day 1 of each treatment period) was then compared between treatments using an analysis of covariance (ANCOVA) that included treatment, patient and period as fixed effects, and baseline values as covariate. The mean change from baseline to Day 32 for biomarkers in blood were analysed using the same model as for sputum data. All data were log-transformed before analysis, and the results are presented as ratio of geometric means.
Effect of CHF6001 on inflammatory biomarkers – Additional file 1 […]
Analysis of biomarkers and CHF6001 concentration in sputum
Sputum samples were collected by sputum induction, with patients breathing in nebuli sed hypertonic saline at increasing concentrations (3%, then 4% and finally 5%) while wearing a nose clip. Sputum plugs were isolated, processed by centrifugation and analysed to determine inflammatory cell counts (with total cell counts performed by each s ite’s local laboratory and differential counts at a central laboratory), as follows.
All solid or dense-looking material was collected from the clear salivary fluid into a stainless steel Petri dish lid. Sputum plugs were then gathered and condensed into one mass. After cleaning the Petri dish, cold Dulbecco's Phosphate -Buffered Saline equal to eight times the weight of the sputum plug was added, then dispersed , mixed and vortexed for 15 sec, before gently agitating on a rolling mixer or rocker for 15 min at room temperature. The resulting mixture was centrifuged at 790 g for 10 min at 4C. A volume of the supernatant equal to four times the weight of the sputum plug was removed and again centrifuged at 1500 g for 10 min at 4C. The clarified supernatant was divided into four equal aliquots, which were shipped in an upright position at –80C to a central laboratory for biomarker assessment. Levels of biomarkers were assessed as follows:
• α-2-macroglobulin: Meso Scale Diagnostics ELISA method .
• Interleukin (IL) 6 and 1β, C-X-C motif chemokine ligand 8 (CXCL8) and tumour necrosis factor (TNF) α: Meso Scale Diagnostics Pro-inflammatory v-PLEX Plus kit.
• Leukotriene B4: High pressure liquid chromatography with tandem mass spectroscopy (HPLC-MS/MS).
• Myeloperoxidase (MPO): Meso Scale Diagnostics MPO v-PLEX kit.
• Neutrophil elastase (NE): Luminex MAGPIX System Human Sepsis Magnetic Bead […]
• Monocyte chemotactic protein (MCP) 1 (also known as C-C motif chemokine ligand [CCL] 2) and macrophage inflammatory protein (MIP) 1β (also known as CCL4):
Meso Scale Diagnostics Chemokine v-PLEX Plus kit.
• Matrix metalloproteinase (MMP) 9: Sandwich Immunoassay, using PheraSTAR Plate […]
• Total protein: Pierce BCA protein assay.
Validation procedures followed those outlined in the “Guideline on Bioanalytical Method […]

In the case of `CS(=O)(=O)Nc1ccc(C(=O)O[C@@H](Cc2c(Cl)c[n+]([O-])cc2Cl)c2ccc(OC(F)F)c(OCC3CC3)c2)cc1OCC1CC1` [CHF6001], the “Difference in inspiratory resistance (5-19Hz), adjusted mean difference vs placebo (95% CI)” value (patients with COPD; 800 µg BID) is reported as “–0.09 (–0.32 to 0.13) cmH2O/(L/s)”, the “Expiratory reactance (5 Hz), adjusted mean difference vs placebo (95% CI)” value (patients with COPD; 800 µg BID) is reported as 0.14 (–0.49 to 0.77) cmH2O/(L/s) and the “Expiratory resistance (5 Hz), adjusted mean difference vs placebo (95% CI)” value (patients with COPD; 800 µg BID) is reported as “–0.15 (–0.45 to 0.15) cmH2O/(L/s)”. For the same compound, the “Expiratory resistance (19 Hz), adjusted mean difference vs placebo (95% CI)” value (patients with COPD; 800 µg BID) was “–0.04 (–0.23 to 0.15) cmH2O/(L/s)”, the “Inspiratory reactance (5 Hz), adjusted mean difference vs placebo (95% CI)” value (patients with COPD; 800 µg BID) was 0.18 (0.00 to 0.36) cmH2O/(L/s) and the “Inspiratory resistance (5 Hz), adjusted mean difference vs placebo (95% CI)” value (patients with COPD; 800 µg BID) was “–0.07 (–0.33 to 0.20) cmH2O/(L/s)”. For the same compound, the “Inspiratory resistance (19 Hz), adjusted mean difference vs placebo (95% CI)” value (patients with COPD; 800 µg BID) was 0.06 (–0.12 to 0.24) cmH2O/(L/s), the “Percentage flow limited breaths, adjusted mean difference vs placebo (95% CI)” value (patients with COPD; 800 µg BID) was 0.95 (–8.51 to 10.41) and the “Tidal expiratory flow limitation, adjusted mean difference vs placebo (95% CI)” value (patients with COPD; 800 µg BID) was 0.03 (–0.56 to 0.63). For the same compound, the “Total reactance (5 Hz), adjusted mean difference vs placebo (95% CI)” value (patients with COPD; 800 µg BID) was 0.13 (–0.30 to 0.56) cmH2O/(L/s), the “Total resistance (5 Hz), adjusted mean difference vs placebo (95% CI)” value (patients with COPD; 800 µg BID) was “–0.13 (–0.39 to 0.13) cmH2O/(L/s)” and the “Total resistance (19 Hz), adjusted mean difference vs placebo (95% CI)” value (patients with COPD; 800 µg BID) was “–0.00 (–0.18 to 0.17) cmH2O/(L/s)”. The “Difference in inspiratory resistance (5-19Hz), adjusted mean difference vs placebo (95% CI)” value (patients with COPD; 1600 µg BID) was 0.05 (–0.18 to 0.27) cmH2O/(L/s), the “Expiratory reactance (5 Hz), adjusted mean difference vs placebo (95% CI)” value (patients with COPD; 1600 µg BID) was 0.082 (–0.55 to 0.72) cmH2O/(L/s) and the “Expiratory resistance (5 Hz), adjusted mean difference vs placebo (95% CI)” value (patients with COPD; 1600 µg BID) was 0.21 (–0.09 to 0.52) cmH2O/(L/s). The “Expiratory resistance (19 Hz), adjusted mean difference vs placebo (95% CI)” value (patients with COPD; 1600 µg BID) was 0.14 (–0.05 to 0.33) cmH2O/(L/s), the “Inspiratory reactance (5 Hz), adjusted mean difference vs placebo (95% CI)” value (patients with COPD; 1600 µg BID) was 0.14 (–0.04 to 0.32) cmH2O/(L/s) and the “Inspiratory resistance (5 Hz), adjusted mean difference vs placebo (95% CI)” value (patients with COPD; 1600 µg BID) was 0.23 (–0.03 to 0.50) cmH2O/(L/s). For the same compound, the “Inspiratory resistance (19 Hz), adjusted mean difference vs placebo (95% CI)” value (patients with COPD; 1600 µg BID) was 0.17 (–0.01 to 0.35) cmH2O/(L/s), the “Percentage flow limited breaths, adjusted mean difference vs placebo (95% CI)” value (patients with COPD; 1600 µg BID) was “–2.06 (–11.66 to 7.53)” and the “Tidal expiratory flow limitation, adjusted mean difference vs placebo (95% CI)” value (patients with COPD; 1600 µg BID) was 0.05 (–0.55 to 0.65). The “Total reactance (5 Hz), adjusted mean difference vs placebo (95% CI)” value (patients with COPD; 1600 µg BID) was 0.03 (–0.41 to 0.47) cmH2O/(L/s), the “Total resistance (5 Hz), adjusted mean difference vs placebo (95% CI)” value (patients with COPD; 1600 µg BID) was 0.22 (–0.04 to 0.49) cmH2O/(L/s) and the “Total resistance (19 Hz), adjusted mean difference vs placebo (95% CI)” value (patients with COPD; 1600 µg BID) was 0.15 (–0.03 to 0.32) cmH2O/(L/s). For the same compound, the “Oscillometry parameters vs placebo” value (patients with COPD; either dose (800 or 1600 μg BID)) was “no consistent treatment–placebo differences”, the “C-X-C motif chemokine ligand 8 in sputum, post-baseline” value ([1]; 800 µg BID) was 1828.97 (140.2) pg/mL and the “Interleukin 1β in sputum, post-baseline” value ([1]; 800 µg BID) was 13.6127 (599.5) pg/mL. The “Interleukin 6 in sputum, post-baseline” value ([1]; 800 µg BID) was 48.7856 (108.7) pg/mL, the “Leukotriene B4 in sputum, post-baseline” value ([1]; 800 µg BID) was 872.363 (135.0) pg/mL and the “Macrophage inflammatory protein 1β in sputum, post-baseline” value ([1]; 800 µg BID) was 68.2963 (153.5) pg/mL. For the same compound, the “Matrix metalloproteinase 9 in sputum, post-baseline” value ([1]; 800 µg BID) was 175.9824 (292.9) ng/mL, the “Monocyte chemotactic protein-1 in sputum, post-baseline” value ([1]; 800 µg BID) was 136.8746 (89.9) pg/mL and the “Myeloperoxidase in sputum, post-baseline” value ([1]; 800 µg BID) was 476,409.369 (720.8) pg/mL. The “Neutrophil elastase in sputum, post-baseline” value ([1]; 800 µg BID) was 82,640.61 (281.5) pg/mL, the “Total protein in sputum, post-baseline” value ([1]; 800 µg BID) was 320.329 (100.5) µg/mL and the “Tumour necrosis factor α in sputum, post-baseline” value ([1]; 800 µg BID) was 1.595 (265.2) pg/mL. For the same compound, the “α-2-macroglobulin in sputum, post-baseline” value ([1]; 800 µg BID) was 247.464 (233.4) ng/mL, the “C-X-C motif chemokine ligand 8 in sputum, post-baseline” value ([1]; 1600 µg BID) was 2104.09 (127.3) pg/mL and the “Interleukin 1β in sputum, post-baseline” value ([1]; 1600 µg BID) was 13.2876 (377.1) pg/mL. For the same compound, the “Interleukin 6 in sputum, post-baseline” value ([1]; 1600 µg BID) was 55.8291 (107.5) pg/mL, the “Leukotriene B4 in sputum, post-baseline” value ([1]; 1600 µg BID) was 678.965 (274.2) pg/mL and the “Macrophage inflammatory protein 1β in sputum, post-baseline” value ([1]; 1600 µg BID) was 60.8680 (139.7) pg/mL. For the same compound, the “Matrix metalloproteinase 9 in sputum, post-baseline” value ([1]; 1600 µg BID) was 176.3384 (249.4) ng/mL, the “Monocyte chemotactic protein-1 in sputum, post-baseline” value ([1]; 1600 µg BID) was 152.5465 (108.2) pg/mL and the “Myeloperoxidase in sputum, post-baseline” value ([1]; 1600 µg BID) was 494,342.192 (536.6) pg/mL. For the same compound, the “Neutrophil elastase in sputum, post-baseline” value ([1]; 1600 µg BID) was 84,470.09 (238.7) pg/mL, the “Total protein in sputum, post-baseline” value ([1]; 1600 µg BID) was 327.176 (102.5) µg/mL and the “Tumour necrosis factor α in sputum, post-baseline” value ([1]; 1600 µg BID) was 1.687 (342.0) pg/mL. For the same compound, the “α-2-macroglobulin in sputum, post-baseline” value ([1]; 1600 µg BID) was 247.877 (270.6) ng/mL.
